Paper PMC3431846, “2,3-Dihydro-1H-cyclopenta[b]quinoline Derivatives as Acetylcholinesterase Inhibitors—Synthesis, Radiolabeling and Biodistribution” (International Journal of Molecular Sciences, 2012)
Where a name gives a salt, the structure may show the parent alone.

Assays:
acetylcholinesterase = conditions: in words; cited from earlier work
[1] = biological target: Acetylcholinesterase from Electrophorus electricus (electric eel) (Electrophorus electricus, UniProt O42275); test: biochemical
[2] = biological target: Butyrylcholinesterase from equine serum (Equus caballus, UniProt P81908); test: biochemical
[3] = Biodistribution of radioactivity in rats after intravenous 99mTc-6a; conditions: 99mTc-labelled, in words
Experimental: For biodistribution studies, male Wistar rats weighing 190–260 g were used. Prior to the experiment, the animals were fasted overnight (to empty the bowels), but had free access to water. All animal experiments were approved by the Ethics Committee of the Faculty of Pharmacy, Charles University, Hradec Kralove.
The agent was administered to rats intravenously in a volume of 0.2 mL. During the course of the experiments, each animal was placed in an individual cage. At various time points after injection, the carotid artery was exposed under ether anesthesia and a blood sample was collected in glass tubes containing dry heparin. The rats were sacrificed and dissected.
The results were expressed as mean ± standard deviations of at least four animals.

Chain of Acetylcholinesterase from Electrophorus electricus (electric eel) (O42275 24-633): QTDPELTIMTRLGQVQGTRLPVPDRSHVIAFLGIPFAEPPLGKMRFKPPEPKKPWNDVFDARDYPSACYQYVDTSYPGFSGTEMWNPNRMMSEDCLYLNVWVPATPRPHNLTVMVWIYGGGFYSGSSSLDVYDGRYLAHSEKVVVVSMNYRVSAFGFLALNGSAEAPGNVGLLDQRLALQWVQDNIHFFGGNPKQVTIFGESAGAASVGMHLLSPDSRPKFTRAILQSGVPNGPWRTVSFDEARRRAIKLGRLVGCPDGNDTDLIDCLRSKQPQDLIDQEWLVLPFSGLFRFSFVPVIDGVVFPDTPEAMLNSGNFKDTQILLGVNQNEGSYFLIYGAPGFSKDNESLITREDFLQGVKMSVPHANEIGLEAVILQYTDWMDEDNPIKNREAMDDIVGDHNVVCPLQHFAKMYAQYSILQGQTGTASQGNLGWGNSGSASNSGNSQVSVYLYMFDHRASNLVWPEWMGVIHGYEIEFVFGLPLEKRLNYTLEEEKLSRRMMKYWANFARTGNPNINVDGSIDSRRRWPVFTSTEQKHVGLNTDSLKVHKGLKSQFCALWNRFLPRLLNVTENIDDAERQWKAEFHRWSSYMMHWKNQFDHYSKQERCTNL
Chain of Butyrylcholinesterase from equine serum (P81908 whole entry): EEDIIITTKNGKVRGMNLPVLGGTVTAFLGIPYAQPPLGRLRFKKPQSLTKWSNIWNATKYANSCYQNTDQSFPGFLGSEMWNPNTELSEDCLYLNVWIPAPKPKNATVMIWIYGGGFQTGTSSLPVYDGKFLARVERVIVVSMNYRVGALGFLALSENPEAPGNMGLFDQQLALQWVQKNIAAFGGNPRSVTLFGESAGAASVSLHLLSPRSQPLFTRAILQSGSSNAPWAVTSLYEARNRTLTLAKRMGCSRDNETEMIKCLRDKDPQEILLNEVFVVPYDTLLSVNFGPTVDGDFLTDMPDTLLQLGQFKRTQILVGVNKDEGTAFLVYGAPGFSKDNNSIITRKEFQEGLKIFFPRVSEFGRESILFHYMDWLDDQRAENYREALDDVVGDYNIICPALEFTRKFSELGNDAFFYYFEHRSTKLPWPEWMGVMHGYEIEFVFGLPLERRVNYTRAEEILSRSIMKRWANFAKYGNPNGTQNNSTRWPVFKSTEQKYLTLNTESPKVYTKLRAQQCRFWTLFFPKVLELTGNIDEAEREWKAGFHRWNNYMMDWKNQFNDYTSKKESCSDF

SMILES | potency compared with tacrine (acetylcholinesterase) | IC50 [1] [nM] | IC50 [2] [µM] | blood radioactivity clearance [3]
Nc1c2c(nc3cc(Cl)ccc13)CCCC2O (stereo not shown) [6-chlorotacrin-1-ol] | more potent than tacrine |  |  | 
Nc1c2c(nc3cc(F)ccc13)CCCC2O (stereo not shown) [6-fluorotacrin-1-ol] | more potent than tacrine |  |  | 
Cl.NNc1ccc(C(=O)NCCNc2c3c(nc4ccccc24)CCC3)cn1 [Compound 6a, 6-Hydrazino-N-[2-(2,3-dihydro-1H-cyclopenta[b]quinolin-9-ylamino)Ethyl]nicotinamide hydrochloride] |  | 31.5 ± 1.9 | 0.164 ± 0.0016 | comparatively rapid
NNc1ccc(C(=O)NCCCNc2c3c(nc4ccccc24)CCC3)cn1 [Compound 6b, 6-Hydrazino-N-[3-(2,3-dihydro-1H-cyclopenta[b]quinolin-9-ylamino)propyl]nicotinamide hydrochloride] |  | 19.3 ± 1.1 | 0.197 ± 0.0034 | 
NNc1ccc(C(=O)NCCCCNc2c3c(nc4ccccc24)CCC3)cn1 [Compound 6c, 6-Hydrazino-N-[4-(2,3-dihydro-1H-cyclopenta[b]quinolin-9-ylamino)butyl]nicotinamide hydrochloride] |  | 22.4 ± 1.7 | 2.65 ± 0.0095 | 
NNc1ccc(C(=O)NCCCCCNc2c3c(nc4ccccc24)CCC3)cn1 [Compound 6d, 6-Hydrazino-N-[5-(2,3-dihydro-1H-cyclopenta[b]quinolin-9-ylamino)pentyl]nicotinamide hydrochloride] |  | 7.84 ± 2.2 | 4.24 ± 0.0022 | 
NNc1ccc(C(=O)NCCCCCCNc2c3c(nc4ccccc24)CCC3)cn1 [Compound 6e, 6-Hydrazino-N-[6-(2,3-dihydro-1H-cyclopenta[b]quinolin-9-ylamino)hexyl]nicotinamide hydrochloride] |  | 41.6 ± 1 | 16.6 ± 0.0175 | 
NNc1ccc(C(=O)NCCCCCCCNc2c3c(nc4ccccc24)CCC3)cn1 [Compound 6f, 6-Hydrazino-N-[7-(2,3-dihydro-1H-cyclopenta[b]quinolin-9-ylamino)heptyl]nicotinamide hydrochloride] |  | 17.6 ± 0.8 | 22.7 ± 0.0206 | 
NNc1ccc(C(=O)NCCCCCCCCNc2c3c(nc4ccccc24)CCC3)cn1 [Compound 6g, 6-Hydrazino-N-[8-(2,3-dihydro-1H-cyclopenta[b]quinolin-9-ylamino)octyl]nicotinamide hydrochloride] |  | 5.17 ± 1.4 | 19.6 ± 0.0164 | 
NNc1ccc(C(=O)NCCCCCCCCCNc2c3c(nc4ccccc24)CCC3)cn1 [Compound 6h, 6-Hydrazino-N-[9-(2,3-dihydro-1H-cyclopenta[b]quinolin-9-ylamino)nonyl]nicotinamide hydrochloride] |  | 3.65 ± 0.5 | 17.1 ± 0.0213 | 
